Laboratory results taken from patent publication US9732151B2, “Biomarkers for TSLP treatment” (Merck Sharp & Dohme Corp., priority 2011, dated 2017).

Legend:
[1] = tested on: biomarker genes in lung tissue of TSLP Tg mice; assay: qRT-PCR of biomarker genes in lung tissue, steroid-treated TSLP Tg mice; assay type: in vivo
Protocol: TSLP Tg mice, on the BALB/c background, were obtained from the laboratory of Steven Ziegler. Zhou et al., Nat. Immunol. 6:1047-53 (2005). Non-transgenic littermates served as control mice. BALB/c mice (for ovalbumin (OVA)-induced asthma experiments) were purchased from the Jackson Laboratory. The standard model of OVA-induced asthma described below was used. In dexamethasone-treatment experiments, 12 week-old TSLP Tg mice were injected i.p. daily for 2 weeks with 2 mg/kg dexamethasone 21-phosphate disodium salt (Sigma) in sterile PBS, or with sterile PBS alone as a control. Colonies were maintained in a specific pathogenic-free environment.
Harvest of murine BAL fluid, BAL cells, and lung tissue: BAL fluid was isolated by washing the lung (through the trachea) with 1mL of PBS. Lavage fluid was kept on ice and centrifuged at 400g for 5 min. The supernatant was frozen for cytokine analysis, and the cell pellet was resuspended in 1mL of PBS for total viable cell count by Vi-CELL ([…]) and cell differentials by cytospin. Slides were air-dried, fixed with 95% ethanol, and stained with Wright-Giemsa (Sigma-Aldrich). A minimum of 200 cells were counted under the microscope per slide for cell differentials. The postcaval lung lobe and BAL cells were collected and snap-frozen in liquid nitrogen for qRT-PCR analysis as described previously for tissue (Chan et al., J. Exp. Med. 203:2577-87 (2006)) and below for BAL cells. The single left lung lobe was excised for histology and clinical scoring as described below.
(§1) mRNA isolation from BAL cells and qRT-PCR: Total RNA was isolated from BAL cells using the RNeasy method (Qiagen, Valencia, Calif.) and reverse-transcribed using WT-OVATION ® (chemicals, assays, and reagents for nucleic acid sequence amplification, sequencing and sequence analysis and detection) Pico System (NuGen Technologies, San Carlos Calif.). Primers were designed using Primer Express software (Applied Biosystem, Foster City, Calif.) or obtained commercially from Applied Biosystems (ABI). qRT-PCR was performed on 10 ng of cDNA from each sample as described previously. Chan et al., J. Exp. Med. 203:2577-87 (2006).

[2] = tested on: biomarkers in BAL fluid or cell mRNA; assay: Table VIII summary: biomarkers down with steroids in BAL fluid or BAL cell mRNA; assay type: in vivo, mice
Source text: as §1
Western blot analysis of BAL fluid samples: Western blot analysis was performed on BAL fluid samples. 200 uL of each BAL fluid sample was acetone precipitated in 4 volumes of cold acetone overnight and resuspended in 1× NUPAGE® (chemical preparations used for life sciences research) LDS sample loading buffer. An equal amount was separated on a 4-12% NUPAGE® (chemical preparations used for life sciences research) gels, and gels were electroblotted onto PVDF membranes overnight at 10V in NUPAGE® (chemical preparations used for life sciences research) transfer buffer. Membranes were blocked in 5% fat-free milk in TBS/T (10mM TrisHC1 pH 7.5, 100 mM NaC1, 0.1% TWEEN® 20 (polysorbate 20)) for 1 hour and incubated with specific antibodies according to the manufacturer's instructions in 1% milk in TBS/T for another 2 hours. Blots were incubated with HRP-labeled secondary antibodies (chicken anti-goat) IgG, R&D Systems, Minneapolis, Minn. or donkey anti-rabbit Ig-G, GE Healthcare, Piscataway, N.J.) in 1% milk in TB S/T for another hour and detection was performed with ECL+(GE Healthcare). Primary antibodies used included anti-mouse LCN2, anti-mouse sICAM-1, anti-human sICAM-1 (for monkey studies), anti-mouse GP-39, anti-mouse YM1, and anti-mouse pIgR (all from R&D Systems); and anti-mouse UG, anti-mouse AMCase, anti-human AMCase (for monkey studies), anti-mouse CLCA3, and anti-human CLCA1 (for monkey studies) (all from Santa Cruz Biotechnology, Santa Cruz, Calif.). Polyclonal anti-mouse Reg3γ was generated at Schering-Plough Biopharma. After autoradiography visualization, membranes were dried and scanned on a Typhoon 9400 (GE Healthcare) for ECL+(457 nm excitation and 520BP40 emission). Image analysis was conducted using ImageQuant v5.2 (GE Healthcare) and band intensity reported as sum of pixel values above background.
ELISAs: Mouse LCN2, GP-39, sICAM-1, and YM1 proteins were quantified using QUANTIKINE® (in vitro immunoassay kits) or DUOSET® (biological reagents for use in research applications to identify cytokines by immunoassay) ELISA kits (R&D Systems) using a Vmax spectrophotometer with SoftMax Pro software (Molecular Devices); mouse IL-4, IL-5, and IL-13 were measured using a Luminex 100 machine with LINCOPLEX® (panels for taking immunoassay measurements and testing cytokine and endocrine hormones) multiplex kits (Millipore) and analyzed with MasterPlex software (Miraibio). Monkey YKL-40 was quantified via ELISA (Quidel), analyzed as above.

[3] = tested on: biomarker genes in skin of TSLPR KO mice; assay: Calcipotriol skin inflammation in TSLPR KO mice, real-time PCR of skin mRNA; assay type: in vivo; conditions: calcipotriol vs ethanol
Protocol: Mice: Six- to eight-week-old Balb/c were obtained from Jackson Labs (Bar Harbour, Me.). TSLPR KO mice were obtained from Dr. W. Leonard, NIH, Bethesda, Md. (Al Shami et al., J. Exp. Med. 200:159-168 (2004). Age-matched males were used for the time-course study and females for two efficacy studies. Vitamin D Induced Skin Inflammation: The vitamin D analogue, calcipotriol (Tocris, Ellisville, Mo.), was dissolved in ethanol and was applied daily to both sides of the ears at a final concentration of 2 nmol/ear. Control animals were given ethanol only. Ear swelling was measured daily using an engineer's pressure gauge (Peacock, Japan) and blood was collected. The blood was spun at 10.000 rpm for 5 minutes to separate the serum, which was frozen at -80 C. until analyzed by ELISA. Calcipotriol applications were stopped on day 8 (Balb/c mice), ears were harvested and fixed in 10% formalin for pathological evaluation or frozen directly in liquid nitrogen for mRNA extraction. […] Similarly, real-time PCR was conducted on mRNA extracted from skin tissue of TSLPR KO mice treated with either ethanol (vehicle control) or calcipotriol.

[4] = tested on: biomarker genes in skin of calcipotriol treated mice; assay: Vitamin D (calcipotriol) induced skin inflammation, real-time PCR of skin mRNA, +/- anti-TSLP; assay type: in vivo, mice (Balb/c); conditions: calcipotriol 2 nmol/ear daily, skin at day 8 (FIG. 5)
Protocol: Vitamin D Induced Skin Inflammation: The vitamin D analogue, calcipotriol (Tocris, Ellisville, Mo.), was dissolved in ethanol and was applied daily to both sides of the ears at a final concentration of 2 nmol/ear. Control animals were given ethanol only. Ear swelling was measured daily using an engineer's pressure gauge (Peacock, Japan) and blood was collected. The blood was spun at 10.000 rpm for 5 minutes to separate the serum, which was frozen at −80 C. until analyzed by ELISA. Calcipotriol applications were stopped on day 8 (Balb/c mice), ears were harvested and fixed in 10% formalin for pathological evaluation or frozen directly in liquid nitrogen for mRNA extraction.
Neutralization Experiments: mice were treated with 0.1, 0.4, 1, 4, 12, 40 and 120 mgs per kg (mpk) of a rat anti-mouse TSLP antibody (designated “22E5”) subcutaneously (s.c.) one day (d−1) prior to VitD3 treatment. Control mice received isotype antibody at 4 and 40 mpk. The mice were sacrificed at day 8.
Real-time PCR was conducted on mRNA extracted from skin tissue of mice treated with calcipotriol in the absence or the presence of an antagonistic anti-TSLP antibody or an isotype control

[5] = tested on: biomarker proteins in BAL fluid of HDMA-challenged monkeys; assay: BAL fluid biomarkers (western blot, ELISA) in HDMA-challenged monkeys before and after corticosteroid therapy; assay type: in vivo, cynomolgus macaques (Macaca fascicularis)
Protocol: Western blot analysis of BAL fluid samples: Western blot analysis was performed on BAL fluid samples. 200 uL of each BAL fluid sample was acetone precipitated in 4 volumes of cold acetone overnight and resuspended in 1× NUPAGE® (chemical preparations used for life sciences research) LDS sample loading buffer. An equal amount was separated on a 4-12% NUPAGE® (chemical preparations used for life sciences research) gels, and gels were electroblotted onto PVDF membranes overnight at 10V in NUPAGE® (chemical preparations used for life sciences research) transfer buffer. Membranes were blocked in 5% fat-free milk in TBS/T (10mM TrisHC1 pH 7.5, 100 mM NaC1, 0.1% TWEEN® 20 (polysorbate 20)) for 1 hour and incubated with specific antibodies according to the manufacturer's instructions in 1% milk in TBS/T for another 2 hours. Blots were incubated with HRP-labeled secondary antibodies (chicken anti-goat) IgG, R&D Systems, Minneapolis, Minn. or donkey anti-rabbit Ig-G, GE Healthcare, Piscataway, N.J.) in 1% milk in TB S/T for another hour and detection was performed with ECL+(GE Healthcare). Primary antibodies used included anti-mouse LCN2, anti-mouse sICAM-1, anti-human sICAM-1 (for monkey studies), anti-mouse GP-39, anti-mouse YM1, and anti-mouse pIgR (all from R&D Systems); and anti-mouse UG, anti-mouse AMCase, anti-human AMCase (for monkey studies), anti-mouse CLCA3, and anti-human CLCA1 (for monkey studies) (all from Santa Cruz Biotechnology, Santa Cruz, Calif.). […] After autoradiography visualization, membranes were dried and scanned on a Typhoon 9400 (GE Healthcare) for ECL+(457 nm excitation and 520BP40 emission). Image analysis was conducted using ImageQuant v5.2 (GE Healthcare) and band intensity reported as sum of pixel values above background.
At this time, animals were challenged with nebulized HDMA (1 to 2500 AU/mL for 4 minutes) at a concentration that induced an early asthmatic response, defined as a 100% increase in lung resistance, 40% decrease in dynamic compliance, or decline in arterial oxygen saturation to ≦70%. Airway inflammation and reactions to nebulized histamine and methacholine 24 hours after allergen challenge were measured periodically to confirm chronic asthmatic responses. Wardle-Fick methods were used to obtain BAL fluid. BAL cells were then separated from the fluid phase. […] In corticosteroid treatments experiments, animals were challenged with HDMA and BAL fluid was collected 24 hours later (“Pre”).

HDMA-challenged monkeys = assay: Asthma symptoms in HDMA-induced asthma in nonhuman primates after corticosteroid treatment; assay type: in vivo, cynomolgus macaques (Macaca fascicularis); conditions: high-dose corticosteroids for 2 weeks, data not shown
Source text: House mite allergen (HDMA)-induced asthma in nonhuman primates: Juvenile macaques (Cynomolgus fascicularis, 30 to 42 months of age) were purchased from Alphagenesis (Yemassee, S.C.). Animals were sensitized to HDMA over a 7.5 month period by intraperitoneal injection of 312 AU Dermatophagoides pteronyssinus extract (Greer Laboratories, Lenoir, N.C.) absorbed to IMJECT® (reagents used in connection with enhancing immune responses) Alum (Pierce, Rockford, Ill.) administered every two weeks until HDMA-specific IgE titers approached levels in control allergic serum, and then at 4-week intervals until aeroallergen challenge. At this time, animals were challenged with nebulized HDMA (1 to 2500 AU/mL for 4 minutes) at a concentration that induced an early asthmatic response, defined as a 100% increase in lung resistance, 40% decrease in dynamic compliance, or decline in arterial oxygen saturation to ≦70%. Airway inflammation and reactions to nebulized histamine and methacholine 24 hours after allergen challenge were measured periodically to confirm chronic asthmatic responses. Wardle-Fick methods were used to obtain BAL fluid. BAL cells were then separated from the fluid phase. Mass spectrometry compared BAL fluid from sensitized animals before and after HDMA challenge. In corticosteroid treatments experiments, animals were challenged with HDMA and BAL fluid was collected 24 hours later (“Pre”). Animals then received weekly doses of methylprednisolone succinate (4.5 mg/kg intramuscularly) for two weeks, followed by a single dose of methylprednisolone acetate (10 mg/kg […].) one week later at the time of allergen challenge. BAL fluid was collected 24 hours following challenge (“Post”). Animal husbandry was conducted under USDA guidelines. All protocols were approved by the Institutional Animal Care and Use Committee of East Carolina University.

C[C@@H]1C[C@H]2[C@@H]3CCC4=CC(=O)C=C[C@]4(C)[C@@]3(F)[C@@H](O)C[C@]2(C)[C@@]1(O)C(=O)CO [Steroids, dexamethasone]
Down with Steroids (Lung Tissue): CLCA3 [1]: — (a dash indicates a biomarker not reduced upon treatment) | Down with Steroids (Lung Tissue): Chi3l4 (YM2) [1]: — (a dash indicates a biomarker not reduced upon treatment) | Down with Steroids (Lung Tissue): ECP (Ear11) [1]: — (a dash indicates a biomarker not reduced upon treatment) | Down with Steroids (Lung Tissue): FCGBP [1]: — (a dash indicates a biomarker not reduced upon treatment) | Down with Steroids (Lung Tissue): ICAM-1 [1]: — (a dash indicates a biomarker not reduced upon treatment) | Down with Steroids (Lung Tissue): LCN2 [1]: — (a dash indicates a biomarker not reduced upon treatment) | Down with Steroids (Lung Tissue): PGLYRP1 [1]: — (a dash indicates a biomarker not reduced upon treatment) | Down with Steroids (Lung Tissue): RETNLβ [1]: — (a dash indicates a biomarker not reduced upon treatment) | Down with Steroids (Lung Tissue): Reg3γ [1]: — (a dash indicates a biomarker not reduced upon treatment) | Down with Steroids (BAL fluid or cell mRNA): AMCase (Chia) [2]: — (a dash indicates a biomarker not reduced upon treatment) | Down with Steroids (BAL fluid or cell mRNA): ECP (Ear11) [2]: — (a dash indicates a biomarker not reduced upon treatment) | Down with Steroids (BAL fluid or cell mRNA): LTF [2]: — (a dash indicates a biomarker not reduced upon treatment) | Down with Steroids (BAL fluid or cell mRNA): MMP12 [2]: — (a dash indicates a biomarker not reduced upon treatment) | Down with Steroids (BAL fluid or cell mRNA): Reg3γ [2]: — (a dash indicates a biomarker not reduced upon treatment)

C=C1/C(=C\C=C2/CCC[C@]3(C)[C@@H]([C@H](C)/C=C/[C@@H](O)C4CC4)CC[C@@H]23)C[C@@H](O)C[C@@H]1O [calcipotriol]
EAR11, MMP12, and YM2 mRNA in skin [3]: not upregulated | upregulation of EAR11, MMP12, LCN2, YM1, YM2, YKL-40, Reg3 g, PGLYRP1, CD44 mRNA in skin [4]: ≥ 2 fold

C[C@H]1C[C@@H]2[C@H]([C@@H](O)C[C@@]3(C)[C@H]2CC[C@]3(O)C(=O)COC(=O)CCC(=O)O)[C@@]2(C)C=CC(=O)C=C12 [corticosteroid, methylprednisolone succinate]
disease biomarkers in BAL fluid ([5]; HDMA-challenged monkeys, 2 weeks of corticosteroid therapy (FIG. 4)): Reduction | expression of LCN2, UG, pIgR, PAP, and CLCA1 in BAL fluid ([5]; Post vs Pre corticosteroid, trending downward, data not shown): not significantly reduced | GP-39 in BAL fluid ([5]; by ELISA, Post vs Pre corticosteroid (FIG. 4B)): significantly reduced | AMCase, sICAM-1, CLCA1 in BAL fluid ([5]; by western blot, Post vs Pre corticosteroid (FIG. 4A)): significantly reduced | airway eosinophil recruitment (HDMA-challenged monkeys): reduced | asthma symptoms (HDMA-challenged monkeys): reduced | lung function (HDMA-challenged monkeys): improved
